Source: paper PMC9067983, “Identification of highly selective type II kinase inhibitors with chiral peptidomimetic tails” (Journal of Enzyme Inhibition and Medicinal Chemistry, 2022)
Where a SMILES comes first, the peptide text is derived from it. [ ]: non-standard residue; d: D form. The star is where a group is joined. X1 = Cc1ccc(Nc2ncc3c(n2)N(C)C(=O)N(c2cc(C(=O)*)ccc2C)C3)cn1; Ac3c = NC1(C(=O)O)CC1; Aib = CC(C)(N)C(=O)O

How the values were obtained:
Lck = molecular target: T1, Lck (Homo sapiens, UniProt P06239); experiment: In vitro kinase assay (IC50); format: biochemical
T1 construct: purchased Reaction Biology Corp
T1 sequence (P06239 whole entry): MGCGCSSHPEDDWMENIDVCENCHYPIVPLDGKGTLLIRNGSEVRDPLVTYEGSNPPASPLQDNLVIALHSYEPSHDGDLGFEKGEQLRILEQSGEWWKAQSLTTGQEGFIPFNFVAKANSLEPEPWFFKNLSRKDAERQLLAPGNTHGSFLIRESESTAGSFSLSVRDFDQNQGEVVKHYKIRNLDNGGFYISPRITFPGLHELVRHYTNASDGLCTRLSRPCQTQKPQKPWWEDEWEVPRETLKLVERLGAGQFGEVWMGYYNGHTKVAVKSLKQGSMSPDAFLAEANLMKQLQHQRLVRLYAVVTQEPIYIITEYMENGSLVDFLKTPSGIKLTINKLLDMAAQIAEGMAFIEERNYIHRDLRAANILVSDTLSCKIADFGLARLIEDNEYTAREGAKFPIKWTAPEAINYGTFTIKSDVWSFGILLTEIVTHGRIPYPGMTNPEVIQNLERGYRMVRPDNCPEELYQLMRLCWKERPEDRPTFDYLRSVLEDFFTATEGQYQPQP
Protocol: (§1) Full panel kinase profiling and kinase IC50 measurement were performed by using Reaction Biology Corp. (San Diego, USA).

c-Src = molecular target: T2, c-Src (Homo sapiens, UniProt P12931); experiment: In vitro kinase assay (IC50); format: biochemical
T2 construct: purchased Reaction Biology Corp
T2 sequence (P12931 whole entry): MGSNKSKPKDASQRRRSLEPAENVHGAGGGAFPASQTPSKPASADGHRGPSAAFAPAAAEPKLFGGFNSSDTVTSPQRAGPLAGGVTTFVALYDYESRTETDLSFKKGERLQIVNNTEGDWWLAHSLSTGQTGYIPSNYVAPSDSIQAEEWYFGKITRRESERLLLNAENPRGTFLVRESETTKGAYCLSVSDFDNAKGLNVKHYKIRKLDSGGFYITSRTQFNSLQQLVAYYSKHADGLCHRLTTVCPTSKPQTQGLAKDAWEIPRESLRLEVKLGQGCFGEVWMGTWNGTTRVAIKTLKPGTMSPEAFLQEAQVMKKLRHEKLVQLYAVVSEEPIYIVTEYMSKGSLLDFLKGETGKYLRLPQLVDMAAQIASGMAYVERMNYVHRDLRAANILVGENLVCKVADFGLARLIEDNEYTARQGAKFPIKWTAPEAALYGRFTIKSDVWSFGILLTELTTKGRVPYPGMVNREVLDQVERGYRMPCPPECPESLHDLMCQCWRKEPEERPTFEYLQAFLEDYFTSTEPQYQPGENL
Protocol: as §1

IC50 (Lck) [nM]	IC50 (c-Src) [nM]	decrease of Lck/c-Src selectivity compared to 7a (Lck) [fold]	selectivity for Lck over c-Src (Lck) [fold]	SMILES
61.5	123			Cc1ccc(Nc2ncc3c(n2)N(C)C(=O)N(c2cc(C(=O)N[C@H](C(=O)N4CCC[C@H]4C(=O)N[C@@H](Cc4ccccc4)C(=O)N[C@@H](CC(C)C)C(=O)N(C)C)C(C)C)ccc2C)C3)cn1 [7i, (S)-N-((S)-1-(((S)-1-(dimethylamino)-4-methyl-1-oxopentan-2-yl)amino)-1-oxo-3-phenylpropan-2-yl)-1-((4-methyl-3-(1-methyl-7-((6-methylpyridin-3-yl)amino)-2-oxo-1,4-dihydropyrimido[4,5-d]pyrimidin-3(2H)-yl)benzoyl)-L-valyl)pyrrolidine-2-carboxamide] (X1-VPFL-NMe2)
155	1740			Cc1ccc(Nc2ncc3c(n2)N(C)C(=O)N(c2cc(C(=O)N[C@@H](Cc4ccccc4)C(=O)N4CCC[C@H]4C(=O)NC(C)(C)C(=O)N[C@H](C(=O)N(C)C)C(C)C)ccc2C)C3)cn1 [7l, (S)-N-(1-(((S)-1-(dimethylamino)-3-methyl-1-oxobutan-2-yl)amino)-2-methyl-1-oxopropan-2-yl)-1-((4-methyl-3-(1-methyl-7-((6-methylpyridin-3-yl)amino)-2-oxo-1,4-dihydropyrimido[4,5-d]pyrimidin-3(2H)-yl)benzoyl)-L-phenylalanyl)pyrrolidine-2-carboxamide] (X1-FP[Aib]V-NMe2)
211	735	> 10		Cc1ccc(Nc2ncc3c(n2)N(C)C(=O)N(c2cc(C(=O)N[C@@H](C(=O)N4CCC[C@@H]4C(=O)NC(C)(C)C(=O)N[C@H](CC(C)C)C(=O)N(C)C)C(C)C)ccc2C)C3)cn1 [7c, (R)-N-(1-(((R)-1-(dimethylamino)-4-methyl-1-oxopentan-2-yl)amino)-2-methyl-1-oxopropan-2-yl)-1-((4-methyl-3-(1-methyl-7-((6-methylpyridin-3-yl)amino)-2-oxo-1,4-dihydropyrimido[4,5-d]pyrimidin-3(2H)-yl)benzoyl)-D-valyl)pyrrolidine-2-carboxamide] (X1-[dV][dP][Aib][dL]-NMe2)
174	1140			Cc1ccc(Nc2ncc3c(n2)N(C)C(=O)N(c2cc(C(=O)N[C@H](C(=O)N4CCC[C@H]4C(=O)NC(C)(C)C(=O)NCC(=O)N(C)C)C(C)C)ccc2C)C3)cn1 [7u, (S)-N-(1-((2-(dimethylamino)-2-oxoethyl)amino)-2-methyl-1-oxopropan-2-yl)-1-((4-methyl-3-(1-methyl-7-((6-methylpyridin-3-yl)amino)-2-oxo-1,4-dihydropyrimido[4,5-d]pyrimidin-3(2H)-yl)benzoyl)-L-valyl)pyrrolidine-2-carboxamide] (X1-VP[Aib]G-NMe2)
64.4	1740			Cc1ccc(Nc2ncc3c(n2)N(C)C(=O)N(c2cc(C(=O)N[C@H](C(=O)N4CCC[C@@H]4C(=O)NCC(=O)N[C@@H](CC(C)C)C(=O)N(C)C)C(C)C)ccc2C)C3)cn1 [7h, (R)-N-(2-(((S)-1-(dimethylamino)-4-methyl-1-oxopentan-2-yl)amino)-2-oxoethyl)-1-((4-methyl-3-(1-methyl-7-((6-methylpyridin-3-yl)amino)-2-oxo-1,4-dihydropyrimido[4,5-d]pyrimidin-3(2H)-yl)benzoyl)-L-valyl)pyrrolidine-2-carboxamide] (X1-V[dP]GL-NMe2)
55.6	329			CC[C@H](C)[C@H](NC(=O)c1ccc(C)c(N2Cc3cnc(Nc4ccc(C)nc4)nc3N(C)C2=O)c1)C(=O)N1CCC[C@H]1C(=O)NC(C)(C)C(=O)N[C@@H](CC(C)C)C(=O)N(C)C [7p, (S)-N-(1-(((S)-1-(dimethylamino)-4-methyl-1-oxopentan-2-yl)amino)-2-methyl-1-oxopropan-2-yl)-1-((4-methyl-3-(1-methyl-7-((6-methylpyridin-3-yl)amino)-2-oxo-1,4-dihydropyrimido[4,5-d]pyrimidin-3(2H)-yl)benzoyl)-L-isoleucyl)pyrrolidine-2-carboxamide] (X1-IP[Aib]L-NMe2)
15.4	174		> 10	Cc1ccc(Nc2ncc3c(n2)N(C)C(=O)N(c2cc(C(=O)N[C@@H](CC(C)C)C(=O)N4CCC[C@H]4C(=O)NC(C)(C)C(=O)N[C@@H](CC(C)C)C(=O)N(C)C)ccc2C)C3)cn1 [7q, (S)-N-(1-(((S)-1-(dimethylamino)-4-methyl-1-oxopentan-2-yl)amino)-2-methyl-1-oxopropan-2-yl)-1-((4-methyl-3-(1-methyl-7-((6-methylpyridin-3-yl)amino)-2-oxo-1,4-dihydropyrimido[4,5-d]pyrimidin-3(2H)-yl)benzoyl)-L-leucyl)pyrrolidine-2-carboxamide] (X1-LP[Aib]L-NMe2)
727	3140			Cc1ccc(Nc2ncc3c(n2)N(C)C(=O)N(c2cc(C(=O)N[C@H](C(=O)N4CCC[C@H]4C(=O)NC(C)(C)C(=O)N[C@H](C(=O)N(C)C)C(C)C)C(C)C)ccc2C)C3)cn1 [7n, (S)-N-(1-(((S)-1-(dimethylamino)-3-methyl-1-oxobutan-2-yl)amino)-2-methyl-1-oxopropan-2-yl)-1-((4-methyl-3-(1-methyl-7-((6-methylpyridin-3-yl)amino)-2-oxo-1,4-dihydropyrimido[4,5-d]pyrimidin-3(2H)-yl)benzoyl)-L-valyl)pyrrolidine-2-carboxamide] (X1-VP[Aib]V-NMe2)
129	2080			Cc1ccc(Nc2ncc3c(n2)N(C)C(=O)N(c2cc(C(=O)N[C@H](C(=O)N4CCC[C@@H]4C(=O)NC4(C(=O)N[C@@H](CC(C)C)C(=O)N(C)C)CC4)C(C)C)ccc2C)C3)cn1 [7e, (R)-N-(1-(((S)-1-(dimethylamino)-4-methyl-1-oxopentan-2-yl)carbamoyl)cyclopropyl)-1-((4-methyl-3-(1-methyl-7-((6-methylpyridin-3-yl)amino)-2-oxo-1,4-dihydropyrimido[4,5-d]pyrimidin-3(2H)-yl)benzoyl)-L-valyl)pyrrolidine-2-carboxamide] (X1-V[dP][Ac3c]L-NMe2)
3.57	27.1			CC1=N[C@@H](Cc2ccccc2)C(=O)Nc2cc(C(=O)Nc3ccc(C)c(N4Cc5cnc(Nc6ccc(C)nc6)nc5N(C)C4=O)c3)ccc21 [11k, (S)-3-benzyl-5-methyl-N-(4-methyl-3-(1-methyl-7-((6-methylpyridin-3-yl)amino)-2-oxo-1,4-dihydropyrimido[4,5-d]pyrimidin-3(2H)-yl)phenyl)-2-oxo-2,3-dihydro-1H-benzo[e][1,4]diazepine-8-carboxamide]
403	5630			Cc1ccc(Nc2ncc3c(n2)N(C)C(=O)N(c2cc(C(=O)N[C@H](C(=O)N4CCC[C@@H]4C(=O)N[C@H](C(=O)N[C@H](C)c4ccccc4)C(C)C)C(C)C)ccc2C)C3)cn1 [7v, (R)-N-((S)-3-methyl-1-oxo-1-(((R)-1-phenylethyl)amino)butan-2-yl)-1-((4-methyl-3-(1-methyl-7-((6-methylpyridin-3-yl)amino)-2-oxo-1,4-dihydropyrimido[4,5-d]pyrimidin-3(2H)-yl)benzoyl)-L-valyl)pyrrolidine-2-carboxamide]
40.2	1370			Cc1ccc(Nc2ncc3c(n2)N(C)C(=O)N(c2cc(C(=O)N[C@H](C(=O)N4CCC[C@H]4C(=O)NCC(=O)N[C@@H](CC(C)C)C(=O)N(C)C)C(C)C)ccc2C)C3)cn1 [7g, (S)-N-(2-(((S)-1-(dimethylamino)-4-methyl-1-oxopentan-2-yl)amino)-2-oxoethyl)-1-((4-methyl-3-(1-methyl-7-((6-methylpyridin-3-yl)amino)-2-oxo-1,4-dihydropyrimido[4,5-d]pyrimidin-3(2H)-yl)benzoyl)-L-valyl)pyrrolidine-2-carboxamide] (X1-VPGL-NMe2)
379	3970			Cc1ccc(Nc2ncc3c(n2)N(C)C(=O)N(c2cc(C(=O)N[C@@H](C)C(=O)N4CCC[C@H]4C(=O)NC(C)(C)C(=O)N[C@H](C(=O)N(C)C)C(C)C)ccc2C)C3)cn1 [7m, (S)-N-(1-(((S)-1-(dimethylamino)-3-methyl-1-oxobutan-2-yl)amino)-2-methyl-1-oxopropan-2-yl)-1-((4-methyl-3-(1-methyl-7-((6-methylpyridin-3-yl)amino)-2-oxo-1,4-dihydropyrimido[4,5-d]pyrimidin-3(2H)-yl)benzoyl)-L-alanyl)pyrrolidine-2-carboxamide] (X1-AP[Aib]V-NMe2)

SMILES	IC50 (Lck) [nM]	IC50 (c-Src) [nM]	decrease of Lck/c-Src selectivity compared to 7a (Lck) [fold]	selectivity for Lck over c-Src (Lck) [fold]
Cc1ccc(Nc2ncc3c(n2)N(C)C(=O)N(c2cc(NC(=O)c4ccc5c(c4)NC(=O)[C@H](Cc4ccc(F)cc4)N=C5c4ccccc4)ccc2C)C3)cn1 [11g, (S)-3-(4-fluorobenzyl)-N-(4-methyl-3-(1-methyl-7-((6-methylpyridin-3-yl)amino)-2-oxo-1,4-dihydropyrimido[4,5-d]pyrimidin-3(2H)-yl)phenyl)-2-oxo-5-phenyl-2,3-dihydro-1H-benzo[e][1,4]diazepine-8-carboxamide]	42.1	134		
Cc1ccc(Nc2ncc3c(n2)N(C)C(=O)N(c2cc(NC(=O)c4ccc5c(c4)N(CC(C)C)C(=O)[C@H](CC(C)C)N=C5c4ccccc4)ccc2C)C3)cn1 [11j, (S)-1,3-diisobutyl-N-(4-methyl-3-(1-methyl-7-((6-methylpyridin-3-yl)amino)-2-oxo-1,4-dihydropyrimido[4,5-d]pyrimidin-3(2H)-yl)phenyl)-2-oxo-5-phenyl-2,3-dihydro-1H-benzo[e][1,4]diazepine-8-carboxamide]	132	461		
Cc1ccc(Nc2ncc3c(n2)N(C)C(=O)N(c2cc(NC(=O)c4ccc5c(c4)NC(=O)[C@@H](Cc4ccccc4)N=C5c4ccccc4)ccc2C)C3)cn1 [11f, (R)-3-benzyl-N-(4-methyl-3-(1-methyl-7-((6-methylpyridin-3-yl)amino)-2-oxo-1,4-dihydropyrimido[4,5-d]pyrimidin-3(2H)-yl)phenyl)-2-oxo-5-phenyl-2,3-dihydro-1H-benzo[e][1,4]diazepine-8-carboxamide]	18.7	62.6		
